For this test, the target named is recombinant DYRK1A kinase (Homo sapiens (Human), UniProt Q13627). Put plainly: DYRK1A kinase assay (Ser/Thr 18 peptide Z-lyte FRET assay). The conditions noted are these: recombinant DYRK1A 0.25 µg/mL, ATP 15 µM, Ser/Thr peptide 18 4 µM, one hour at room temperature; table head prints EC50, method says IC50. The class given is biochemical. On the procedure:
Representative compounds were screened using the assay procedure for DYRK1A kinase activity as described below.
Each compound was dissolved in DMSO as a 10 mM stock and used to prepare compound source plates. Serial dilution (1:3, 11-point dose-response curves from 10 µM to 0.00016 µM) and compound transfer was performed using the ECHO 550 (Labcyte, Sunnyvale, CA) into 1536-well black-walled round bottom plates (Corning).
The DYRK1A kinase assay was run using the Ser/Thr 18 peptide Z-lyte assay kit according to manufacturer’s instructions (Life Technologies- a Division of Thermo-Fisher). This is a non-radioactive assay using fluorescence resonance energy transfer (FRET) between coumarin and fluorescein to detect kinase activity which is represented as a ratio of coumarin emission/fluorescein emission.
Briefly, recombinant DYRK1A kinase, ATP and Ser/Thr peptide 18 were prepared in 1X Kinase buffer to final concentrations of 0.25 µg/mL, 15 µM, and 4 µM respectively. The mixture was allowed to incubate with the representative compounds for one hour at room temperature. All reactions were performed in duplicate. Unphosphorylated (“0% Control”) and phosphorylated (“100% control”) forms of Ser/Thr 18 served as control reactions. Additionally, an 11-point dose-response curve of Staurosporine (1uM top) was run to serve as a positive compound control.
After incubation, Development Reagent A was diluted in Development Buffer then added to the reaction and allowed to further incubate for one hour at room temperature. The plate was read at Ex 400 Em 455 to detect the coumarin signal and Ex 400 Em 520 to measure the signal (EnVision Multilabel Plate Reader, PerkinElmer).
The Emission ratio (Em) was calculated as a ratio of the coumarin (C) emission signal (at 445 nm)/Fluorescein (F) emission signal (at 520 nm). The percent phosphorylation was then calculated using the following formula: [1 — ((Em ratio X F100%)—C100%)/ ((C0%—C100%) + (Em ratio X (F100% - F0%)))]. Dose-response curves were generated, and inhibitory concentration (IC50) values were calculated using non-linear regression curve fit in the Dotmatics’ Studies Software (Bishops Stortford, UK).

From patent US20230312605A1, “PYRROLO[2,1-F][1,2,4]TRIAZINES AND PREPARATION AND USES THEREOF” (BioSplice Therapeutics, Inc., priority 2021, published 2023) come the findings set out here.

Broadly, the EC50 is the midpoint of the concentration-response curve. For the compound `Cc1nc2ccc(-c3ccn4nc(N[C@H]5CC[C@](C)(O)CC5)ncc34)nc2n1CC(F)F` [Compound 1840, trans-4-((5-(3-(2,2-Difluoroethyl)-2-methyl-3H-imidazo[4,5-b]pyridin-5-yl)pyrrolo[2,1-f][1,2,4]triazin-2-yl)amino)-1-methylcyclohexan-1-ol], the EC50 is 3 nM.

Regarding `Cc1nc2ccc(-c3ccn4nc(N[C@@H]5CN(C6COC6)C[C@@H]5F)ncc34)nc2n1CC(F)F` [Compound 1945, 5-(3-(2,2-Difluoroethyl)-2-methyl-3H-imidazo[4,5-b]pyridin-5-yl)-N-((3R,4S)-4-fluoro-1-(oxetan-3-yl)pyrrolidin-3-yl)pyrrolo [2,1-f][1,2,4]triazin-2-amine], the concentration for a half-maximal effect (EC50) came to 1 nM. Take `CO[C@@H]1COCC[C@H]1Nc1ncc2c(-c3ccc4nc(C)n(CC(F)F)c4n3)ccn2n1` [Compound 1867, 5-(3-(2,2-Difluoroethyl)-2-methyl-3H-imidazo[4,5-b]pyridin-5-yl)-N-((3S,4R)-3-methoxytetrahydro-2H-pyran-4-yl)pyrrolo[2,1-f][1,2,4]triazin-2-amine]: the EC50 turned out to be 32 nM.

Take `C[C@]1(O)CC[C@H](Nc2ncc3c(-c4ccc5nnn(CC(F)F)c5c4)ccn3n2)CC1` [Compound 1890, trans-4-((5-(1-(2,2-Difluoroethyl)-1H-benzo[d][1,2,3]triazol-6-yl)pyrrolo [2,1-f][1,2,4]triazin-2-yl)amino)-1-methylcyclohexan-1-o1]: the EC50 was found to be 14 nM. The value for `FC1(F)CCC(Nc2ncc3c(-c4ccc5nccnc5c4)ccn3n2)CC1` [Compound 1392, N-(4,4-Difluorocyclohexyl)-5-(quinoxalin-6-yl)pyrrolo[2,1-f][1,2,4]triazin-2-amine] was 529 nM; that for `Cn1nnc2ccc(-c3ccn4nc(NCC(C)(C)F)ncc34)cc21` [Compound 1210, N-(2-Fluoro-2-methylpropyl)-5-(1-methyl-1H-benzo[d][1,2,3]triazol-6-yl) pyrrolo[2,1-f][1,2,4]triazin-2-amine] was 66 nM. Take `CC(=O)N[C@]1(C)C[C@@H](Nc2ncc3c(-c4ccc5nccnc5c4)ccn3n2)C1` [Compound 1981, N-((1r,3r)-1-methyl-3-((5-(quinoxalin-6-yl)pyrrolo[2,1-f][1,2,4]triazin-2-yl)amino)cyclobutyl)acetamide]: the EC50 stood at 2 nM.

Consider `COCCO[C@H]1C[C@@H](Nc2ncc3c(-c4ccc5ncccc5c4)ccn3n2)C1` [Compound 1309, N-(cis-3-(2-Methoxyethoxy)cyclobutyl)-5-(quinolin-6-yl)pyrrolo[2,1-f][1,2,4]triazin-2-amine], for which the EC50 was 3 nM. As to `Cc1nc2ccc(-c3ccn4nc(NC5CCC(F)(F)CC5)ncc34)nc2n1CC1CNC1` [Compound 1873, 5-(3-(Azetidin-3-ylmethyl)-2-methyl-3H-imidazo[4,5-b]pyridin-5-yl)-N-(4,4-difluorocyclohexyl)pyrrolo[2,1-f][1,2,4]triazin-2-amine], the EC50 came out at 131 nM. Regarding `CCO[C@H]1C[C@@H](Nc2ncc3c(-c4cnc5ncccc5c4)ccn3n2)C1` [Compound 1520, N-(cis-3-Ethoxycyclobutyl)-5-(1,8-naphthyridin-3-yl)pyrrolo[2,1-f][1,2,4] triazin-2-amine], the EC50 stood at 963 nM. Take `CC(=O)N1C[C@H](F)[C@H](Nc2ncc3c(-c4ccc5nc(C)n(CC(F)F)c5n4)ccn3n2)C1` [Compound 1941, 1-((3R,4S)-3-((5-(3-(2,2-Difluoroethyl)-2-methyl-3H-imidazo[4,5-b]pyridin-5-yl)pyrrolo[2,1-f] [1,2,4]triazin-2-yl)amino)-4-fluoropyrrolidin-1-yl)ethan-1-one]: the EC50 came to 4 nM. Regarding `COCCO[C@H]1CC[C@H](Nc2ncc3c(-c4ccc5nc(C)n(CC(F)F)c5n4)ccn3n2)CC1` [Compound 1118, 5-(3-(2,2-Difluoroethyl)-2-methyl-3H-imidazo[4,5-b]pyridin-5-yl)-N-(trans-4-(2-methoxyethoxy)cyclohexyl)pyrrolo[2,1-f][1,2,4]triazin-2-amine], the EC50 came out at 5 nM.
